Results on seven molecules are retold here after ChEMBL document CHEMBL1649061, “Synthesis and pharmacological evaluation of N-(3-(1H-indol-4-yl)-5-(2-methoxyisonicotinoyl)phenyl)methanesulfonamide (LP-261), a potent antimitotic agent” (J Med Chem, 2011).

The subject of one series is Jurkat. In words: Cell cycle arrest in human Jurkat cells assessed as accumulation at G2/M phase after 24 hrs using propidium iodide staining by FACS analysis. For orientation: In flow cytometry, cells or beads pass a laser one at a time.
The test system of the next series is BXPC-3. In words: Cell cycle arrest in human BxPC3 cells assessed as accumulation at G2/M phase after 24 hrs using propidium iodide staining by FACS analysis. Format: functional, cell-based. The note with it: BXPC-3, 24 h.
A further series relates to NCI-H522. In words: Cell cycle arrest in human NCI-H522 cells assessed as accumulation at G2/M phase after 24 hrs using propidium iodide staining by FACS analysis. Format: functional, cell-based. The note with it: NCI-H522, 24 h.
Series [1] can be described thus: Inhibition of tubulin polymerization after 60 mins.
Another series concerns NCI-H23. In words: Cell cycle arrest in human NCI-H23 cells assessed as accumulation at G2/M phase after 24 hrs using propidium iodide staining by FACS analysis. The format is functional, cell-based. The note with it: NCI-H23, 24 h.
Series [2] has as its system SW-620. In words: Cell cycle arrest in human SW620 cells assessed as accumulation at G2/M phase after 24 hrs using propidium iodide staining by FACS analysis. Format: functional, cell-based. The note with it: SW-620, 24 h.
A further series relates to U-266. In words: Cell cycle arrest in human U266 cells assessed as accumulation at G2/M phase after 24 hrs using propidium iodide staining by FACS analysis. Format: functional, cell-based. The settings on record: U-266, 24 h.
Series [3] in a line: Displacement of [3H]colchicine from tubulin at 30 uM. On the technique in general: In a radioligand displacement assay an active substance lowers the binding of a labelled ligand.
The subject of a further series is PC-3. Description: Cell cycle arrest in human PC3 cells assessed as accumulation at G2/M phase after 24 hrs using propidium iodide staining by FACS analysis. Format: functional, cell-based. The note with it: PC-3, 24 h.
A short description of series [4]: Cytotoxicity against human NCI-ADR-RES expressing MDR1 cells after 48 to 72 hrs by […] assay. Format: functional, cell-based.
The test system of series [5] is SW-620. Description: Cytotoxicity against human SW620 cells after 48 to 72 hrs by […] assay. Format: functional, cell-based.
For the next series, the system named is A2780. Description: Cytotoxicity against human A2780 cells after 48 to 72 hrs by […] assay. The format is functional, cell-based.
For the next series, the system named is HeLa. Description: Cytotoxicity against human HeLa cells after 48 to 72 hrs by […] assay. Format: functional, cell-based.
The test system of another series is MCF7. In words: Cell cycle arrest in human MCF7 cells assessed as accumulation at G2/M phase after 24 hrs using propidium iodide staining by FACS analysis. The format is functional, cell-based. The settings on record: MCF7, 24 h.
The nature of series [6]: Oral bioavailability in Sprague-Dawley rat at 20 mg/kg. Format: ADME, organism-based. The settings on record: in vivo.

pEC50, pIC50: −log10 of the molar value. The source made the active and inactive calls. The calls are words filed in the database; no cut-off is given here.

Consider `COc1cc2c(c(OC)c1OC)-c1ccc(OC)c(=O)cc1[C@@H](NC(C)=O)CC2` [COLCHICINE], for which the pIC50 (in general, −log10 of the IC50, conventionally taken in molar units) in the series on Jurkat is 7.77; with BXPC-3 it was 7.80; with NCI-H522 it was 7.85; with NCI-H23 it was 7.89; in the series on SW-620 [2], 7.85; in the series with U-266, 8.00. Further, the negative-log IC50 (pIC50) in the series with PC-3 is 7.48. Besides, in series [1], the negative logarithm of the EC50 (pEC50) (as a rule, the negative decadic logarithm of the EC50, by convention in mol/L) was 5.70. For the same molecule, the inhibition (usually the change of the read-out against control, counted positive when it falls) in series [3] came out at 79%.
In the case of `COc1ccc(S(=O)(=O)Nc2cccnc2Nc2ccc(O)cc2)cc1` [ABT-751], the negative-log IC50 (pIC50) in [4] is 6.54; in the series on SW-620 [5] it was 6.72; with A2780, 6.77; with Jurkat, 6.80; in the series on HeLa, 6.57.
Take `COC(=O)Nc1cc(C(=O)c2ccnc(N3CCOCC3)c2)cc(-c2cccc3[nH]ccc23)c1`: the pIC50 in [4] was 6.52; in the series with SW-620 [5], 6.60; in the series with A2780, 6.66; in the series with BXPC-3, 8.00; in the series on NCI-H23, 7.52; with HeLa, 6.55. Besides, the negative-log IC50 (pIC50) was 6.92 in the series on U-266, 7.52 in the series with MCF7 and 7.70 in the series on PC-3. In addition, in series [1], the pEC50 is 5.34.
In the case of `CC(=O)O[C@H]1C(=O)[C@@]2(C)[C@H]([C@H](OC(=O)c3ccccc3)[C@]3(O)C[C@H](OC(=O)[C@H](O)[C@@H](NC(=O)c4ccccc4)c4ccccc4)C(C)=C1C3(C)C)[C@]1(OC(C)=O)CO[C@@H]1C[C@@H]2O` [PACLITAXEL], the pIC50 in series [4] was 4.89; in the series on SW-620 [5] it was 7.52; with A2780 it was 8.00; with HeLa, 7.70.
The molecule `CC[C@]1(O)C[C@H]2CN(CCc3c([nH]c4ccccc34)[C@@](C(=O)OC)(c3cc4c(cc3OC)N(C=O)[C@H]3[C@@](O)(C(=O)OC)[C@H](OC(C)=O)[C@]5(CC)C=CCN6CC[C@]43[C@@H]65)C2)C1` [VINCRISTINE] showed a pEC50 in series [1] of 5.60. Moreover, the inhibition entry in series [3] was “inactive”.
Regarding `CC(=O)Nc1cc(C(=O)c2cc(C)nc(N3CCOCC3)c2)cc(-c2cccc3[nH]ccc23)c1`, the negative logarithm of the IC50 (pIC50) was 5.96 in series [4]; 6.35 with SW-620 [5]; 6.46 in the series with A2780; 7.15 in the series on BXPC-3; 7.40 in the series with NCI-H23; 6.31 in the series with HeLa. Moreover, the pIC50 is 7.70 in the series with U-266, 8.00 in the series on MCF7 and 7.30 with PC-3.
On to `Oc1cc(Nc2cccnc2)cc(-c2cccc3[nH]ccc23)c1`, for which the bioavailability (in general, dose-corrected exposure relative to a reference, in per cent) in series [6] was 24%.
